According to patent US9023851B2 (Merck Patent GmbH, priority 2010, dated 2015):
pIC50: −log10 of the molar value.

Key:
Assay type in all cases: biochemical
[1] = biological target: T1, ZAP-70 (Homo sapiens, UniProt P43403); experiment: Zap70 enzymatic assay (Caliper LifeSciences technology)
T1 construct: purchased BPS Bioscience, CA, USA
T1 sequence (P43403 1-619): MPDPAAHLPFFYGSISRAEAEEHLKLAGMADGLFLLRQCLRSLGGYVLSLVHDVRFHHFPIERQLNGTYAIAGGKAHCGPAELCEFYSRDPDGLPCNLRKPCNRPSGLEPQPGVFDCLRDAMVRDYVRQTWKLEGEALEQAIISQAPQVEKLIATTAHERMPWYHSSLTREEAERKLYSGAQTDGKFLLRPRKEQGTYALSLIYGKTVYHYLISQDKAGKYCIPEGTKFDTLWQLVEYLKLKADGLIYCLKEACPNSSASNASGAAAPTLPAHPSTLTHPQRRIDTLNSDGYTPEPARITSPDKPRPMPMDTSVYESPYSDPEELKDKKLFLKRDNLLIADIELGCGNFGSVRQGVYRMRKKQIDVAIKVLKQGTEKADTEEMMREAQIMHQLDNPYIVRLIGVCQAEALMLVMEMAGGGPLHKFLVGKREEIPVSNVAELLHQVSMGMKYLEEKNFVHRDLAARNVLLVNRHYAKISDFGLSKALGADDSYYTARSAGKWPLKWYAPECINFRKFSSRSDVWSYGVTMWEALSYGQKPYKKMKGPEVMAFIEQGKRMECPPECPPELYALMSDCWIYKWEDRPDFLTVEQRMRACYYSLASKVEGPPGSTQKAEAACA
Description: (§1) Enzymatic Assays Using the Caliper LifeSciences Technology
(§2) The assays described here are performed on the Caliper Life Sciences LC3000 system This technology provides data on enzyme activity via measurement of the relative amounts of phosphorylated or unphosphorylated fluorescently labelled substrate peptide at the end of an enzymatic reaction. These different states of peptide are resolved by applying a potential difference across the sample. The presence of the charged phosphate group on the product (as opposed to the substrate) causes a different peptide mobility between the two peptides. This is visualized by excitation of the fluorescent label on the substrate and product peptides and represented as peaks within the analysis software.
(§3) In order to measure inhibitor activity of kinase inhibitors on this technology, a TTP Mosquito liquid handling instrument is used to place 0.25 ul of the appropriate concentration of inhibitor in 100% DMSO (for a dose response curve calculation) into each well of a 384-well plate. To this reaction components are added to a final volume of 25 ul. The table below indicates the sequences and concentrations for the assays described in this report. Standard components are 1 mM DTT (Sigma, D0632), 1 mM MgCl2 (Sigma, M1028), 100 mM HEPES pH 7.5 (Calbiochem, 391338), 0.015% Brij-35 (Sigma, B4184).
(§4) The reaction is incubated for 90 min at 25 C, and then stopped by the addition of 70 ul of Stop buffer (100 mM HEPES pH 7.5, 0.015% Brij-35, 10 mM EDTA (Sigma, E7889)).
(§5) The plate is read on a Caliper LC 3000 in an Off-Chip mobility shift assay format, on a 12-sipper chip. Unphosphorylated substrate and phosphorylated product peptide resolve as separate peaks allowing direct measurement of percentage of conversion of substrate to product. The percent conversion can be plotted against concentration of inhibitor to produce a sigmoidal dose response curve, from which an IC50 can be calculated using GeneData Condoseo or a similar product. Cellular activity assays

[2] = biological target: T2, KDR (Homo sapiens, UniProt P35968); experiment: KDR enzymatic assay (Caliper LifeSciences technology)
T2 construct: purchased BPS Bioscience, CA, USA
Description: as §1, §2, §3, §4, §5

[3] = biological target: T3, Syk (Homo sapiens, UniProt P43405); experiment: Syk enzyme assay (flash plate / Caliper mobility shift)
T3 construct: purchased BPS Bioscience, CA, USA
Description: The kinase assay is performed either as 384-well Flashplate assay (for e.g. Topcount measurement) or as 384-well Image-Flashplate assay (for LEADseeker measurement).
2.5 nM SYK, 400 nM Biotin-Aha-Aha-[…] and 10 μM ATP (spiked with 0.3 μCi 33P-ATP/well) are incubated in a total volume of 50 μl (60 mM Hepes, 10 mM MgCl2, 1.2 mM Dithiothreitol, 0.02% Brij35, 0.1% BSA, pH 7.5) with or without test compound for 1 hours at 30° C. The reaction is stopped with 25 μl 200 mM EDTA. After 30 Min at 30° C. the liquid is removed and each well washed thrice with 100 μl 0.9% sodium chloride solution. Non-specific reaction is determined in presence of 0.1 μM Staurosporine. Radioactivity is measured with Topcount (when using Flashplates) or with LEADseeker (when using Image-Flashplates) respectively. Results (e.g. IC50-values) are calculated with program tools provided by the IT-department (e.g. Symyx Assay Explorer, Genedata Screener).
as §1, §2, §3, §4, §5

T2 sequence (P35968 20-1356): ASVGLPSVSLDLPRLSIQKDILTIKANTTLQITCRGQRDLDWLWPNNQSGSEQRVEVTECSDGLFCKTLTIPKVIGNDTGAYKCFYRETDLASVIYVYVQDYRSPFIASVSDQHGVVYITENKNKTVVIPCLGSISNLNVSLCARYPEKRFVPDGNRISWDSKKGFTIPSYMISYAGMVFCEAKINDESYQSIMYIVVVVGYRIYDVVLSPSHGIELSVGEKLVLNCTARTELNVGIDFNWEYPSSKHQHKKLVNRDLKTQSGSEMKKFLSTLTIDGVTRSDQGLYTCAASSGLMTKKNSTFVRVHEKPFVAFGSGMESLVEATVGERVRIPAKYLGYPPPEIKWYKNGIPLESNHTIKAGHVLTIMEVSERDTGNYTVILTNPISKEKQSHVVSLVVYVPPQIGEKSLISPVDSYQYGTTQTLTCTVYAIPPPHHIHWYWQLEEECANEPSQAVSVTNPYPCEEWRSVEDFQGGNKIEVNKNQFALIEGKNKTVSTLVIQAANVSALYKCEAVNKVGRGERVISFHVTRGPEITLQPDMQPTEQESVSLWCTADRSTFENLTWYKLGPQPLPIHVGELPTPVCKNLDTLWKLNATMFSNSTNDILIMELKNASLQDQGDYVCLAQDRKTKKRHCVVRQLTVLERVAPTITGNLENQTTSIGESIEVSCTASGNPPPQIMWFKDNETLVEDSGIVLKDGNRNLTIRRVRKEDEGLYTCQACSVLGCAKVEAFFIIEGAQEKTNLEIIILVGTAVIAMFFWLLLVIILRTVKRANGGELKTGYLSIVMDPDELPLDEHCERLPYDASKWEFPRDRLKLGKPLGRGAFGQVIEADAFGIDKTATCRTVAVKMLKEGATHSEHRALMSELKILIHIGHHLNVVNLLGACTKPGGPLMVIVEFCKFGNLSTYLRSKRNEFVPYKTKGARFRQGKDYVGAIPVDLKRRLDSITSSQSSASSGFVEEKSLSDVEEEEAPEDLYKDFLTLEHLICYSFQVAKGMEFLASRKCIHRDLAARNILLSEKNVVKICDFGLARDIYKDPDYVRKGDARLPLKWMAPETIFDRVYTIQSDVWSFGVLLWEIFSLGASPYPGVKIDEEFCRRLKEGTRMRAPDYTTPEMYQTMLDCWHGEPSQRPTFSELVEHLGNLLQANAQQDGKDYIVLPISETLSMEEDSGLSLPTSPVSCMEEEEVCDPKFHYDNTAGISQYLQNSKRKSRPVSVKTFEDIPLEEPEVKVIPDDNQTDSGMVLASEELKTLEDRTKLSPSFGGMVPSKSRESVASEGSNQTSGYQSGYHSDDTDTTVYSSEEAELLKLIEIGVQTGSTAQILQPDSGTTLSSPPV

| pIC50 [1] | pIC50 [2] | pIC50 [3] | Compound |
| --- | --- | --- | --- |
| 4.30 to 5.52 | 4.30 to 5.52 |  | CN1CCN(CCCNc2nccn3nc(Nc4cccc(C(F)(F)F)c4)nc23)CC1 [Example C43, N^843-(4-Methyl-piperazin-1-yl)-propyq-N^2-(3-trifluoromethyl-phenyl)-[1,2,4]triazolo[1,5-a]pyrazine-2,8-diamine] |
| 5.52 to 6.52 |  | 5.52 to 6.52 | COc1cc(OC)cc(-c2nccn3nc(Nc4ccc5cnn(Cc6ccccc6)c5c4)nc23)c1 [Example C26, (1-Benzyl-1H-indazol-6-yl)-[8-(3,5-dimethoxy-phenyl)-[1,2,4]triazolo[1,5-a]pyrazin-2-yl]-amine] |
| 4.30 to 5.52 | 5.52 to 6.52 | 5.52 to 6.52 | Cc1cccc(Nc2nc3c(-c4cccnc4)nccn3n2)c1 [Example C21, (8-Pyridin-3-yl-[1,2,4]triazolo[1,5-a]pyrazin-2-yl)-m-tolyl-amine] |
| 4.30 to 5.52 |  | > 6.52 | COc1cc(OC)cc(-c2nccn3nc(Nc4ccccc4)nc23)c1 [Example C18, [8-(3,5-Dimethoxy-phenyl)-[1,2,4]triazolo[1,5-a]pyrazin-2-yl]-phenyl-amine] |
| 4.30 to 5.52 | 4.30 to 5.52 | 4.30 to 5.52 | NCCNc1nccn2nc(Nc3cccc(C(F)(F)F)c3)nc12 [Example C41, N^8-(2-Amino-ethyl)-N^2-(3-trifluoromethyl-phenyl)-[1,2,4]triazolo[1,5-a]pyrazine-2,8-diamine] |
| 4.30 to 5.52 |  | 4.30 to 5.52 | O=C1Cc2cc(Nc3nc4c(-c5cnc6ccccc6c5)nccn4n3)ccc2N1 [Example C263, 5-(8-Quinolin-3-yl-[1,2,4]triazolo[1,5-a]pyrazin-2-ylamino)-1,3-dihydro-indol-2-one] |
| 4.30 to 5.52 |  | 4.30 to 5.52 | COc1cc(Nc2nccn3nc(Nc4ccc(Sc5nccn5C)c(Cl)c4)nc23)cc(OC)c1 [Example C78, N^2-[3-Chloro-4-(1-methyl-1H-imidazol-2-ylsulfanyl)-phenyl]-N^8-(3,5-dimethoxy-phenyl)-[1,2,4]triazolo[1,5-a]pyrazine-2,8-diamine] |
| 4.30 to 5.52 | > 6.52 | 5.52 to 6.52 | Cc1cccc(Nc2nc3c(-c4ccccc4)nccn3n2)c1 [Example C1, (8-Phenyl-[1,2,4]triazolo[1,5-a]pyrazin-2-yl)-m-tolyl-amine] |
| 4.30 to 5.52 |  | 4.30 to 5.52 | Cc1cc(C)cc(Nc2nccn3nc(Nc4ccc(Sc5nccn5C)c(Cl)c4)nc23)c1 [Example C77, N^2-[3-Chloro-4-(1-methyl-1H-imidazol-2-ylsulfanyl)-phenyl]-N^8-(3,5-dimethyl-phenyl)-[1,2,4]triazolo[1,5-a]pyrazine-2,8-diamine] |
| 4.30 to 5.52 |  |  | Cc1cc(C)cc(Nc2nccn3nc(Nc4cccc(C(F)(F)F)c4)nc23)c1 [Example C86, N^8-(3,5-Dimethyl-phenyl)-N^2-(3-trifluoromethyl-phenyl)-[1,2,4]triazolo[1,5-a]pyrazine-2,8-diamine] |
| 4.30 to 5.52 |  | 4.30 to 5.52 | FC(F)(F)c1cccc(Nc2nccn3nc(Nc4ccccc4)nc23)c1 [Example C76, N^2-Phenyl-N^8-(3-trifluoromethyl-phenyl)-[1,2,4]triazolo[1,5-a]pyrazine-2,8-diamine] |
| 4.30 to 5.52 |  |  | FC(F)(F)c1cccc(Nc2nc3c(Nc4ccccc4)nccn3n2)c1 [Example C88, N^8-Phenyl-N^2-(3-trifluoromethyl-phenyl)-[1,2,4]triazolo[1,5-a]pyrazine-2,8-diamine] |
| 5.52 to 6.52 |  |  | c1ccc(Cn2ncc3ccc(Nc4nc5c(Nc6ccccc6)nccn5n4)cc32)cc1 [Example C85, N^2-(1-Benzyl-1H-indazol-6-yl)-N^8-phenyl-[1,2,4]triazolo[1,5-a]pyrazine-2,8-diamine] |
| 4.30 to 5.52 |  | 4.30 to 5.52 | Cn1ccnc1Sc1ccc(Nc2nc3c(Cl)nccn3n2)cc1Cl [Example B6, [3-Chloro-4-(1-methyl-1H-imidazol-2-ylsulfanyl)-phenyl]-(8-chloro-[1,2,4]triazolo[1,5-a]pyrazin-2-yl)-amine] |
| 5.52 to 6.52 |  | 4.30 to 5.52 | Cc1cccc(Nc2nccn3nc(Nc4ccc(Sc5nccn5C)c(Cl)c4)nc23)c1 [Example C79, N^2-[3-Chloro-4-(1-methyl-1H-imidazol-2-ylsulfanyl)-phenyl]-N^8-m-tolyl-[1,2,4]triazolo[1,5-a]pyrazine-2,8-diamine] |
| 4.30 to 5.52 | 4.30 to 5.52 | 4.30 to 5.52 | COc1cc(OC)cc(-c2nccn3nc(Nc4ccc(Sc5nccn5C)c(Cl)c4)nc23)c1 [Example C25, [3-Chloro-4-(1-methyl-1H-imidazol-2-ylsulfanyl)-phenyl]-[8-(3,5-dimethoxy-phenyl)-[1,2,4]triazolo[1,5-a]pyrazin-2-yl]-amine] |
| 4.30 to 5.52 |  |  | COc1cc(Nc2nccn3nc(Nc4cccc(C(F)(F)F)c4)nc23)cc(OC)c1 [Example C87, N^8-(3,5-Dimethoxy-phenyl)-N^2-(3-trifluoromethyl-phenyl)-[1,2,4]triazolo[1,5-a]pyrazine-2,8-diamine] |
| 4.30 to 5.52 |  |  | c1ccc(Cn2ncc3ccc(Nc4nccn5nc(Nc6ccccc6)nc45)cc32)cc1 [Example C75, N^8-(1-Benzyl-1H-indazol-6-yl)-N^2-phenyl-[1,2,4]triazolo[1,5-a]pyrazine-2,8-diamine] |
| 4.30 to 5.52 |  | 4.30 to 5.52 | COCCCNc1nccn2nc(Nc3cccc(C(F)(F)F)c3)nc12 [Example C44, N^8-(3-Methoxy-propyl)-N^2-(3-trifluoromethyl-phenyl)-[1,2,4]triazolo[1,5-a]pyrazine-2,8-diamine] |
| 4.30 to 5.52 |  | 5.52 to 6.52 | c1ccc(Cn2ncc3ccc(Nc4nc5c(-c6cccnc6)nccn5n4)cc32)cc1 [Example C27, (1-Benzyl-1H-indazol-6-yl)-(8-pyridin-3-yl-[1,2,4]triazolo[1,5-a]pyrazin-2-yl)-amine] |
| 5.52 to 6.52 |  | 4.30 to 5.52 | Cn1ccnc1Sc1ccc(Nc2nc3c(Nc4ccccc4)nccn3n2)cc1Cl [Example C80, N^2-[3-Chloro-4-(1-methyl-1H-imidazol-2-ylsulfanyl)-phenyl]-N^8-phenyl-[1,2,4]triazolo[1,5-a]pyrazine-2,8-diamine] |
| 5.52 to 6.52 | 4.30 to 5.52 |  | c1ccc(Nc2nc3c(NCCCN4CCOCC4)nccn3n2)cc1 [Example C51, N^8-(3-Morpholin-4-yl-propyl)-N^2-phenyl-[1,2,4]triazolo[1,5-a]pyrazine-2,8-diamine] |
| 4.30 to 5.52 |  | 4.30 to 5.52 | Cc1cc(C)cc(Nc2nccn3nc(Nc4ccc5cnn(Cc6ccccc6)c5c4)nc23)c1 [Example C81, N^2-(1-Benzyl-1H-indazol-6-yl)-N^8-(3,5-dimethyl-phenyl)-[1,2,4]triazolo[1,5-a]pyrazine-2,8-diamine] |
| 4.30 to 5.52 | 4.30 to 5.52 |  | CN1CCN(CCCNc2nccn3nc(Nc4ccccc4)nc23)CC1 [Example C52, N^8-[3-(4-Methyl-piperazin-1-yl)-propyl]-N^2-phenyl-[1,2,4]triazolo[1,5-a]pyrazine-2,8-diamine] |
| 4.30 to 5.52 |  | 4.30 to 5.52 | Clc1nccn2nc(Nc3ccccc3)nc12 [Example B5, 8-Chloro-[1,2,4]triazolo[1,5-a]pyrazin-2-yl-phenyl-amine] |
